# From US9695168B2 (Incyte Corporation, priority 2014, dated 2017)
# Target: LSD1 (Homo sapiens (Human), UniProt O60341)
# Assay: LSD1 Histone Demethylase Biochemical Assay (LANCE LSD1/KDM1A demethylase assay)
# Conditions: 1 nM LSD-1 enzyme, 1 hour preincubation at 25° C., 0.4 μM Biotin-labeled Histone H3 peptide substrate
# Method: LSD1 Histone Demethylase Biochemical Assay
# LANCE LSD1/KDM1A demethylase assay-10 μL of 1 nM LSD-1 enzyme (ENZO BML-SE544-0050) in the assay buffer (50 mM Tris, pH 7.5, 0.01% Tween-20, 25 mM NaCl, 5 mM DTT) were preincubated for 1 hour at 25° C. with 0.8 μL compound/DMSO dotted in black 384 well polystyrene plates. […] Reactions were stopped by addition of 10 μL 1× LANCE Detection Buffer (PerkinElmer CR97-100) supplemented with 1.5 nM Eu-anti-unmodified H3K4 Antibody (PerkinElmer TRF0404), and 225 nM LANCE Ultra Streptavidin (PerkinElmer TRF102) along with 0.9 mM Tranylcypromine-HCl (Millipore 616431). After stopping the reactions plates were incubated for 30 minutes and read on a PHERAstar FS plate reader (BMG Labtech).
row,SMILES,IC50 [nM]
1,"CN(C)[C@H]1CCN(c2nc(-c3ccc(C#N)cc3)c(-c3ccc4c(c3)oc(=O)n4C)n3cncc23)C1 [Example 112, (S)-4-(8-(3-(dimethylamino)pyrrolidin-1-yl)-5-(3-methyl-2-oxo-2,3-dihydrobenzo[d]oxazol-6-yl)imidazo[1,5-a]pyrazin-6-yl)benzonitrile]",50 to 100
2,"CCn1nnc2cc(-c3c(-c4ccc(C#N)cc4)cc(OC[C@@H]4CCCN(C)C4)c4cncn34)cnc21 [Example 117, 4-(5-(3-ethyl-3H-[1,2,3]triazolo[4,5-b]pyridin-6-yl)-8-{[(3R)-1-methylpiperidin-3-yl]methoxy}imidazo[1,5-a]pyridin-6-yl)benzonitrile]",50 to 100
3,"CC(O)CN1CCC[C@@H](COc2cc(-c3ccc(C#N)cc3)c(-c3cnc4c(c3)OCCO4)n3cncc23)C1 (stereo partly drawn) [Example 118, 4-(5-(2,3-dihydro[1,4]dioxino[2,3-b]pyridin-7-yl)-8-{[(3R)-1-(2-hydroxypropyl)piperidin-3-yl]methoxy}imidazo[1,5-a]pyridin-6-yl)benzonitrile]",50 to 100
4,"CC(O)CN1CCC[C@@H](COc2cc(-c3ccc(C#N)cc3)c(-c3cnc4ccoc4c3)n3cncc23)C1 (stereo partly drawn) [Example 119, 4-(5-(furo[3,2-b]pyridin-6-yl)-8-(((3R)-1-(2-hydroxypropyl)piperidin-3-yl)methoxy)imidazo[1,5-a]pyridin-6-yl)benzonitrile]",50 to 100
5,"CC(O)c1c(F)cc(-c2c(-c3ccc(C#N)cc3)cc(OC[C@@H]3CCCN(C)C3)c3cncn23)cc1F (stereo partly drawn) [Example 124, 4-(5-[3,5-difluoro-4-(1-hydroxyethyl)phenyl]-8-{[(3R)-1-methylpiperidin-3-yl]methoxy}imidazo[1,5-a]pyridin-6-yl)benzonitrile]",50 to 100
6,"CN1CCC[C@@H](COc2cc(-c3ccc(C#N)cc3)c(-c3ccc(C(C)(C)C#N)nc3)n3cncc23)C1 [Example 132, 4-(5-[6-(1-cyano-1-methylethyl)pyridin-3-yl]-8-{[(3R)-1-methylpiperidin-3-yl]methoxy}imidazo[1,5-a]pyridin-6-yl)benzonitrile]",50 to 100
7,"CCc1ccc(-c2c(-c3ccc(C#N)cc3)cc(OC[C@@H]3CCCN(C)C3)c3cncn23)cn1 [Example 133, 4-(5-(6-ethylpyridin-3-yl)-8-{[(3R)-1-methylpiperidin-3-yl]methoxy}imidazo[1,5-a]pyridin-6-yl)benzonitrile]",50 to 100
8,"CNC(=O)c1ccc(-c2c(-c3ccc(C#N)cc3)cc(OC[C@@H]3CCCN(C)C3)c3cncn23)cn1 [Example 135, 5-(6-(4-cyanophenyl)-8-{[(3R)-1-methylpiperidin-3-yl]methoxy}imidazo[1,5-a]pyridin-5-yl)-N-methylpyridine-2-carboxamide]",50 to 100
9,"Cc1ncc(-c2c(-c3ccc(C#N)cc3)nc(N3CCC(N(C)C)CC3)c3cncn23)cc1C(F)F [Example 140, 4-{5-[5-(difluoromethyl)-6-methylpyridin-3-yl]-8-[4-(dimethylamino)piperidin-1-yl]imidazo[1,5-a]pyrazin-6-yl}benzonitrile]",50 to 100
10,"CNC(=O)c1ccc(-c2c(-c3ccc(C#N)cc3)nc(N3CCC(N(C)C)CC3)c3cncn23)cn1 [Example 141, 5-{6-(4-cyanophenyl)-8-[4-(dimethylamino)piperidin-1-yl]imidazo[1,5-a]pyrazin-5-yl}-N-methylpyridine-2-carboxamide]",100 to 500
11,"CCN1CCC[C@@H](COc2cc(-c3ccc(C#N)cc3)c(-c3ccc(C)nc3)n3cncc23)C1 [Example 146, 4-[8-{[(3R)-1-ethylpiperidin-3-yl]methoxy}-5-(6-methylpyridin-3-yl)imidazo[1,5-a]pyridin-6-yl]benzonitrile]",50 to 100
12,"COCc1cc(-c2c(-c3ccc(C#N)cc3)cc(OC[C@@H]3CCCN(C)C3)c3cncn23)cnc1C [Example 147, 4-(5-[5-(methoxymethyl)-6-methylpyridin-3-yl]-8-{[(3R)-1-methylpiperidin-3-yl]methoxy}imidazo[1,5-a]pyridin-6-yl)benzonitrile]",50 to 100
13,"COc1ncc(-c2c(-c3ccc(C#N)cc3)nc(N3CCC(N(C)C)CC3)c3cncn23)cn1 [Example 150, 4-[8-[4-(dimethylamino)piperidin-1-yl]-5-(2-methoxypyrimidin-5-yl)imidazo[1,5-a]pyrazin-6-yl]benzonitrile]",100 to 500
14,"CN1CCC[C@@H](COc2cc(-c3ccc(C#N)cc3)c(-c3ccc(C(C)(C)O)nc3)n3cncc23)C1 [Example 151, 4-(5-[6-(1-hydroxy-1-methylethyl)pyridin-3-yl]-8-{[(3R)-1-methylpiperidin-3-yl]methoxy}imidazo[1,5-a]pyridin-6-yl)benzonitrile]",100 to 500
15,"CN1CCC[C@@H](COc2cc(-c3ccc(C#N)cc3)c(-c3cnc4c(c3)OCC(=O)N4C)n3cncc23)C1 [Example 152, (R)-4-(5-(4-methyl-3-oxo-3,4-dihydro-2H-pyrido[3,2-b][1,4]oxazin-7-yl)-8-((1-methylpiperidin-3-yl)methoxy)imidazo[1,5-a]pyridin-6-yl)benzonitrile]",50 to 100
16,"CN1CCC[C@@H](COc2cc(-c3ccc(C#N)cc3)c(-c3ccc4c(c3)CN(C)C4=O)n3cncc23)C1 [Example 154, 4-(5-(2-methyl-1-oxo-2,3-dihydro-1H-isoindol-5-yl)-8-{[(3R)-1-methylpiperidin-3-yl]methoxy}imidazo[1,5-a]pyridin-6-yl)benzonitrile]",100 to 500
17,"CC(C)n1nnc2cc(-c3c(-c4ccc(C#N)cc4)cc(OC[C@@H]4CCCN(C)C4)c4cncn34)cnc21 [Example 155, (R)-4-(5-(3-isopropyl-3H-[1,2,3]triazolo[4,5-b]pyridin-6-yl)-8-((1-methylpiperidin-3-yl)methoxy)imidazo[1,5-a]pyridin-6-yl)benzonitrile]",100 to 500
18,"CN1CCC[C@@H](COc2cc(-c3ccc(C#N)cc3)c(-c3cnc4c(c3)nnn4C3CC3)n3cncc23)C1 [Example 156, (R)-4-(5-(3-cyclopropyl-3H-[1,2,3]triazolo[4,5-b]pyridin-6-yl)-8-((1-methylpiperidin-3-yl)methoxy)imidazo[1,5-a]pyridin-6-yl)benzonitrile]",100 to 500
19,"CC(C)c1nc2cc(-c3c(-c4ccc(C#N)cc4)cc(OC[C@@H]4CCCN(C)C4)c4cncn34)cnc2n1C [Example 157, (R)-4-(5-(2-isopropyl-3-methyl-3H-imidazo[4,5-b]pyridin-6-yl)-8-((1-methylpiperidin-3-yl)methoxy)imidazo[1,5-a]pyridin-6-yl)benzonitrile]",100 to 500
20,"CN1CCC[C@@H](COc2cc(-c3ccc(C#N)cc3)c(-c3cnc4c(c3)nc(C3CC3)n4C)n3cncc23)C1 [Example 158, (R)-4-(5-(2-cyclopropyl-3-methyl-3H-imidazo[4,5-b]pyridin-6-yl)-8-((1-methylpiperidin-3-yl)methoxy)imidazo[1,5-a]pyridin-6-yl)benzonitrile]",100 to 500
